# Laboratory results published in patent US12679878B2, “CRF2 receptor agonists and their use in therapy” (SANOFI, priority 2020, dated 2026).
# Like-named read-outs stand apart in the source and are kept apart here. Starred links: 1 amine or outer side, 2 acyl side, 3 side chain; linkers in the order of their positions; H or OH if unused. Non-standard residues stand in square brackets, D forms with d. Residues, ends and D or L forms follow the SMILES beside them. Groups on a side chain read outwards from the residue. *: point of attachment. C16 diacid = O=C(O)CCCCCCCCCCCCCCC(=O)*; γGlu = O=C(O)[C@H](CCC(=O)[*:2])N[*:1]; Palmitoyl = CCCCCCCCCCCCCCCC(=O)*; AEEA = NCCOCCOCC(=O)O; Aib = CC(C)(N)C(=O)O
# What was measured:
# human CRF2α receptor = biological target: T1, human CRF2α receptor (Homo sapiens, UniProt Q13324); test: cAMP agonism at human CRF2α receptor in TeloHEAC cells, FA modified peptides (Example 19.9); assay type: cell-based; conditions: 0% HSA, relative to urocortin 2
# T1 construct: expressed in transfected cells; host or cells: TeloHEAC
# T1 sequence (Q13324 1-411): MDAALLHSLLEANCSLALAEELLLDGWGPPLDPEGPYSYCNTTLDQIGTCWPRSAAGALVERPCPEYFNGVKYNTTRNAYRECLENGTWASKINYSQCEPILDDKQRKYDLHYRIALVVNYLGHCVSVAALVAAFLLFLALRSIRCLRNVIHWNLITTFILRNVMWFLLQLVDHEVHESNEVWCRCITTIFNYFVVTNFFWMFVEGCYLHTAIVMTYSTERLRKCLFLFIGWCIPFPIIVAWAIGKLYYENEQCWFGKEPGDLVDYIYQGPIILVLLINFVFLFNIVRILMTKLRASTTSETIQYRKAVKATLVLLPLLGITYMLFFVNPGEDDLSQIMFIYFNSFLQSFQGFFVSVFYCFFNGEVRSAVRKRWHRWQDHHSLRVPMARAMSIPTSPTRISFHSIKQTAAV
# Protocol: Agonism of compounds for human corticotropin-releasing factor 2α (CRF2α receptor) was determined by a functional assay measuring cAMP modulation upon treatment of TeloHEAC cells stably expressing human CRF2α receptor.
# Compounds were dissolved at 0.5 mM in 100% DMSO and serially diluted (1:2) in 100% DMSO for 16 dilutions. 20 nL of each dilution was then transferred to 384-well assay plate using an acoustic droplet ejection instrument. 5 μL of compound buffer (1×HBSS; 20 mM HEPES, 2 mM IBMX, 0% or 0.2% HSA) were then added to each well.
# Prior to use, frozen cells were thawed quickly at 37° C. and washed (5 min at 900 rpm) with 20 mL cell buffer (1×HBSS; 20 mM HEPES). Cells were resuspended in cell buffer and adjusted to a cell density of 800.000 cells/ml.
# 5 μL cells (final dell density: 4000 cells/well) were dispensed in the compound-containing 384-well assay plate and incubated for 30 minutes 37° C.
# The CAMP level in treated cells was determined using the Cisbio 62AM4PEC kit according to manufacturer's instruction. Finally, plates were incubated for 1 h at room temperature before measuring the fluorescence ratio between 665/620 nm.
# The percent activity value (E %) was calculated by setting 100 nM of urocortin 2 (UCN2) as 100%. The in vitro potency of the compounds was quantified by determining the concentrations that caused 50% activation of maximal response (EC50) relative to urocortin 2.
# CRF1R receptor = biological target: T2, CRF1R receptor (Homo sapiens, UniProt P34998); test: cAMP activity at anti-target CRF1R, CHO-K1 cell line clone 2 (Example 19.10); assay type: cell-based; conditions: for Emax: 100% = Sauvagine at 100 nM; for CRF1/CRF2 ratio: ratio of CRF1 EC50 to CRF2 EC50
# T2 construct: host or cells: CHO-K1 clone 2
# T2 sequence (P34998 24-415): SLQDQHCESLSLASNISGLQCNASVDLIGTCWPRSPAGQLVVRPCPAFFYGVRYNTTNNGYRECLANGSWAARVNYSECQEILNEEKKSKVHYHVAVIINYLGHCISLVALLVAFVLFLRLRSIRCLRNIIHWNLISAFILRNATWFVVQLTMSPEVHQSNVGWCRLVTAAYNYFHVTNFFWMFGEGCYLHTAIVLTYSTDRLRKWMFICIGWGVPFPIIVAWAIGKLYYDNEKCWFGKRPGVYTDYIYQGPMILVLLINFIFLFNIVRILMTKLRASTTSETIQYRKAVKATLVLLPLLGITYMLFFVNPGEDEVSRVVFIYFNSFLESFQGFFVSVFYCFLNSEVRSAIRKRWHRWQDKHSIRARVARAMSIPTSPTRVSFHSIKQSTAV
# Outline: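 A CRF1R-overexpressing CHO-K1 line (clone 2) was grown in F12/10% FBS/G418 and frozen in aliquots before use. The cAMP assay followed the preceding procedure, with 100% activation defined by Sauvagine at 100 nM.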
# [1] = 0% HSA, CRF1R CHO-K1 clone 2, read-out: EC50 [nM] 0% HSA
# [2] = Table 20 side-to-side comparison, read-out: CRF1 EC50
SMILES,EC50 (human CRF2α receptor) [nM],EC50 (CRF1R receptor; [1]) [nM],Emax (CRF1R receptor; CRF1R CHO-K1 clone 2) [%],EC50 (CRF1R receptor; [2]) [nM],CRF1/CRF2 ratio (CRF1R receptor)
CC[C@H](C)[C@H](N)C(=O)N[C@H](C(=O)N[C@@H](CC(C)C)C(=O)N[C@@H](CO)C(=O)N[C@@H](CC(C)C)C(=O)N[C@@H](CC(=O)O)C(=O)N[C@@H](C(=O)N1CCC[C@H]1C(=O)N[C@H](C(=O)NCC(=O)N[C@@H](CC(C)C)C(=O)N[C@@H](CCCCNC(=O)CC[C@H](NC(=O)CCCCCCCCCCCCCCC(=O)O)C(=O)O)C(=O)N[C@@H](CCC(N)=O)C(=O)N[C@H](C(=O)N[C@@H](CC(C)C)C(=O)N[C@@H](CC(C)C)C(=O)N[C@@H](CCCCN)C(=O)N[C@@H](CCC(N)=O)C(=O)N[C@@H](CCC(=O)O)C(=O)N[C@@H](CCCNC(=N)N)C(=O)N[C@@H](CCC(N)=O)C(=O)N[C@@H](CCCCN)C(=O)N[C@@H](CCCCN)C(=O)NC(C)(C)C(=O)N[C@@H](CCCNC(=N)N)C(=O)N[C@@H](CCC(N)=O)C(=O)N[C@@H](CCC(N)=O)C(=O)N[C@@H](C)C(=O)N[C@@H](CCC(=O)O)C(=O)N[C@H](C(=O)N[C@@H](CC(N)=O)C(=O)N[C@@H](CCCCN)C(=O)N[C@@H](CCCNC(=N)N)C(=O)N[C@H](C(=O)N[C@@H](CC(C)C)C(=O)N[C@@H](CCC(=O)O)C(=O)N[C@@H](CCCNC(=N)N)C(=O)N[C@H](C(N)=O)C(C)C)[C@@H](C)CC)[C@@H](C)O)[C@@H](C)CC)[C@@H](C)CC)C(C)C)C(C)C [compound 195] (H-IVLSLD[dV]PIGLK([γGlu-C16 diacid])QILLKQERQKK[Aib]RQQAETNKRILERV-NH2),0.34,> 100,17.1,> 100,>500
CC[C@H](C)[C@H](N)C(=O)N[C@H](C(=O)N[C@@H](CC(C)C)C(=O)N[C@@H](CO)C(=O)N[C@@H](CC(C)C)C(=O)N[C@@H](CC(=O)O)C(=O)N[C@@H](C(=O)N1CCC[C@H]1C(=O)N[C@H](C(=O)NCC(=O)N[C@@H](CC(C)C)C(=O)N[C@@H](CCCCNC(=O)CC[C@H](NC(=O)CCCCCCCCCCCCCCC(=O)O)C(=O)O)C(=O)N[C@@H](CCC(N)=O)C(=O)N[C@H](C(=O)N[C@@H](CC(C)C)C(=O)N[C@@H](CC(C)C)C(=O)N[C@@H](CCCCN)C(=O)N[C@@H](CCC(N)=O)C(=O)N[C@@H](CCC(=O)O)C(=O)N[C@@H](CCCNC(=N)N)C(=O)N[C@@H](CCC(N)=O)C(=O)N[C@@H](CCCCN)C(=O)N[C@@H](CCCCN)C(=O)NC(C)(C)C(=O)N[C@@H](CCCNC(=N)N)C(=O)N[C@@H](CCC(=O)O)C(=O)N[C@@H](CCC(N)=O)C(=O)N[C@@H](C)C(=O)N[C@@H](CCC(=O)O)C(=O)N[C@@H](CCCCN)C(=O)N[C@@H](CC(N)=O)C(=O)N[C@@H](CCCCN)C(=O)N[C@@H](CCCNC(=N)N)C(=O)N[C@H](C(=O)N[C@@H](CC(C)C)C(=O)N[C@@H](CCC(=O)O)C(=O)N[C@@H](CCCNC(=N)N)C(=O)N[C@H](C(N)=O)C(C)C)[C@@H](C)CC)[C@@H](C)CC)[C@@H](C)CC)C(C)C)C(C)C [compound 196] (H-IVLSLD[dV]PIGLK([γGlu-C16 diacid])QILLKQERQKK[Aib]REQAEKNKRILERV-NH2; N-terminus assumed),1.08,> 100,16.9,> 100,>500
CCCCCCCCCCCCCCCC(=O)N[C@@H](CCC(=O)NCCCC[C@H](NC(=O)[C@H](CC(C)C)NC(=O)[C@H](CCCCN)NC(=O)[C@@H](NC(=O)[C@@H]1CCCN1C(=O)[C@H](NC(=O)[C@H](CC(=O)O)NC(=O)[C@H](CC(C)C)NC(=O)[C@H](CO)NC(=O)[C@H](CC(C)C)NC(=O)[C@@H](NC(=O)[C@@H](N)[C@@H](C)CC)C(C)C)C(C)C)[C@@H](C)CC)C(=O)N[C@@H](CCC(N)=O)C(=O)N[C@H](C(=O)N[C@@H](CC(C)C)C(=O)N[C@@H](CC(C)C)C(=O)N[C@@H](CCCCN)C(=O)N[C@@H](CCC(N)=O)C(=O)N[C@@H](CCC(=O)O)C(=O)N[C@@H](CCCNC(=N)N)C(=O)N[C@@H](CCC(N)=O)C(=O)N[C@@H](CCCCN)C(=O)N[C@@H](CCCCN)C(=O)N[C@@H](CCC(N)=O)C(=O)N[C@@H](CCCNC(=N)N)C(=O)N[C@@H](CCC(=O)O)C(=O)N[C@@H](CCCCN)C(=O)N[C@@H](C)C(=O)N[C@@H](CCC(=O)O)C(=O)N[C@@H](CCCCN)C(=O)N[C@@H](CC(N)=O)C(=O)N[C@@H](CCCCN)C(=O)N[C@@H](CCC(N)=O)C(=O)N[C@H](C(=O)N[C@@H](CC(C)C)C(=O)N[C@@H](C)C(=O)N[C@@H](CCC(N)=O)C(=O)N[C@H](C(N)=O)C(C)C)[C@@H](C)CC)[C@@H](C)CC)C(=O)O [compound 213] (H-IVLSLD[dV]PIKLK([γGlu-Palmitoyl])QILLKQERQKKQREKAEKNKQILAQV-NH2),4.48,–,–,–,–
CCCCCCCCCCCCCCCC(=O)N[C@@H](CCC(=O)NCCCC[C@H](NC(=O)[C@H](CC(C)C)NC(=O)CNC(=O)[C@@H](NC(=O)[C@@H]1CCCN1C(=O)[C@H](NC(=O)[C@H](CC(=O)O)NC(=O)[C@H](CC(C)C)NC(=O)[C@H](CO)NC(=O)[C@H](CC(C)C)NC(=O)[C@@H](NC(=O)[C@@H](N)[C@@H](C)CC)C(C)C)C(C)C)[C@@H](C)CC)C(=O)N[C@@H](CCC(N)=O)C(=O)N[C@H](C(=O)N[C@@H](CC(C)C)C(=O)N[C@@H](CC(C)C)C(=O)N[C@@H](CCCCN)C(=O)N[C@@H](CCC(N)=O)C(=O)N[C@@H](CCC(=O)O)C(=O)N[C@@H](CCCNC(=N)N)C(=O)N[C@@H](CCC(N)=O)C(=O)N[C@@H](CCCCN)C(=O)N[C@@H](CCCCN)C(=O)NC(C)(C)C(=O)N[C@@H](CCCNC(=N)N)C(=O)N[C@@H](CCC(=O)O)C(=O)N[C@@H](CCC(N)=O)C(=O)N[C@@H](C)C(=O)N[C@@H](CCC(=O)O)C(=O)N[C@H](C(=O)N[C@@H](CC(N)=O)C(=O)N[C@@H](CCCCN)C(=O)N[C@@H](CCC(N)=O)C(=O)N[C@H](C(=O)N[C@@H](CC(C)C)C(=O)N[C@@H](C)C(=O)N[C@@H](CCC(N)=O)C(=O)N[C@H](C(N)=O)C(C)C)[C@@H](C)CC)[C@@H](C)O)[C@@H](C)CC)C(=O)O [compound 215] (H-IVLSLD[dV]PIGLK([γGlu-Palmitoyl])QILLKQERQKK[Aib]REQAETNKQILAQV-NH2; N-terminus assumed),0.15,–,–,–,–
CCCCCCCCCCCCCCCC(=O)N[C@@H](CCC(=O)N[C@@H](CCC(=O)NCCOCCOCC(=O)NCCOCCOCC(=O)NCCCC[C@H](NC(=O)[C@H](CC(C)C)NC(=O)CNC(=O)[C@@H](NC(=O)[C@@H]1CCCN1C(=O)[C@H](NC(=O)[C@H](CC(=O)O)NC(=O)[C@H](CC(C)C)NC(=O)[C@H](CO)NC(=O)[C@H](CC(C)C)NC(=O)[C@@H](NC(=O)[C@@H](N)[C@@H](C)CC)C(C)C)C(C)C)[C@@H](C)CC)C(=O)N[C@@H](CCC(N)=O)C(=O)N[C@H](C(=O)N[C@@H](CC(C)C)C(=O)N[C@@H](CC(C)C)C(=O)N[C@@H](CCCCN)C(=O)N[C@@H](CCC(N)=O)C(=O)N[C@@H](CCC(=O)O)C(=O)N[C@@H](CCCNC(=N)N)C(=O)N[C@@H](CCC(N)=O)C(=O)N[C@@H](CCCCN)C(=O)N[C@@H](CCCCN)C(=O)NC(C)(C)C(=O)N[C@@H](CCCNC(=N)N)C(=O)N[C@@H](CCC(=O)O)C(=O)N[C@@H](CCC(N)=O)C(=O)N[C@@H](C)C(=O)N[C@@H](CCC(=O)O)C(=O)N[C@H](C(=O)N[C@@H](CC(N)=O)C(=O)N[C@@H](CCCCN)C(=O)N[C@@H](CCC(N)=O)C(=O)N[C@H](C(=O)N[C@@H](CC(C)C)C(=O)N[C@@H](C)C(=O)N[C@@H](CCC(N)=O)C(=O)N[C@H](C(N)=O)C(C)C)[C@@H](C)CC)[C@@H](C)O)[C@@H](C)CC)C(=O)O)C(=O)O [compound 217] (H-IVLSLD[dV]PIGLK([AEEA-AEEA-γGlu-γGlu-Palmitoyl])QILLKQERQKK[Aib]REQAETNKQILAQV-NH2; N-terminus assumed),0.16,–,–,–,–
